This note sets out measurements from patent US10675360B2 (MADRIGAL PHARMACEUTICALS, INC., priority 2014, dated 2020).

The test system of data set [1] is H 3211 NSLC cells. The data set is described as follows: IC50 of continuous and pulsed exposure to SDC-TRAPs. It counts as cell-based.
Data set [2] is described as follows: Stability in mouse plasma. It counts as in vitro ADME. The note with it: 1 h.
Setting [3] is: 1 h, read-out: IC50, 1 h-pulse/71 h-compound free, H 3211 NSLC cells, 7.5 × 10^3 cells/well, 1st of 2 columns.
Setting [4] is: 1 h, read-out: IC50, 1 h-pulse/71 h-compound free, H 3211 NSLC cells, 7.5 × 10^3 cells/well, 2nd of 2 columns.
The mark [5] stands for this setting: 72 h, read-out: IC50, 72 h-continuous, H 3211 NSLC cells, 7.5 × 10^3 cells/well, 2nd of 3 columns.
Where [6] appears, read: 72 h, read-out: IC50, 72 h-continuous, H 3211 NSLC cells, 7.5 × 10^3 cells/well, 1st of 3 columns.
Setting [7] is: 72 h, read-out: IC50, 72 h-continuous, H 3211 NSLC cells, 7.5 × 10^3 cells/well, 3rd of 3 columns.

Where two headings read alike, the source gives them in different places. Where only a bound is given, the exact number is not on record here.

Turning to `CNCCn1ccc2cc(-n3c(O)nnc3-c3cc(C(C)C)c(O)cc3O)ccc21` [SDC-TRAP-0004], the IC50 in data set [1] (read-out: IC50, 1 h-pulse/71 h-compound free, H 3211 NSLC cells, 7.5 × 10^3 cells/well, 1st of 2 columns) was 624 nM; in data set [1] (read-out: IC50, 1 h-pulse/71 h-compound free, H 3211 NSLC cells, 7.5 × 10^3 cells/well, 2nd of 2 columns), 1750 nM; in data set [1] (read-out: IC50, 72 h-continuous, H 3211 NSLC cells, 7.5 × 10^3 cells/well, 1st of 3 columns), 22 nM; in data set [1] (read-out: IC50, 72 h-continuous, H 3211 NSLC cells, 7.5 × 10^3 cells/well, 2nd of 3 columns) it was 60 nM; in data set [1] (read-out: IC50, 72 h-continuous, H 3211 NSLC cells, 7.5 × 10^3 cells/well, 3rd of 3 columns), 40 nM.
Regarding `CC(C)c1cc(-c2nnc(O)n2-c2ccc3c(ccn3CCOCCNC(=O)CCCC(=O)Nc3cccc4c3CN(C3CCC(=O)NC3=O)C4=O)c2)c(O)cc1O` (stereo not drawn) [SDC-TRAP-0015, N1-(2-(2-(5-(3-(2,4-dihydroxy-5-isopropylphenyl)-5-hydroxy-4H-1,2,4-triazol-4-yl)-1H-indol-1-yl)ethoxy)ethyl)-N5-(2-(2,6-dioxopiperidin-3-yl)-1-oxoisoindolin-4-yl)glutaramide], the IC50 in data set [1] (setting [3]) is greater than 3000 nM; in data set [1] (setting [4]), greater than 3000 nM; in data set [1] (setting [5]) it was 2230 nM.
For `CC(C)c1cc(-c2nnc(O)n2-c2ccc3c(ccn3CCN(C)C(=O)CCCC(=O)Nc3cccc4c3CN(C3CCC(=O)NC3=O)C4=O)c2)c(O)cc1O` (stereo not drawn) [SDC-TRAP-0018, N1-(2-(5-(3-(2,4-dihydroxy-5-isopropylphenyl)-5-hydroxy-4H-1,2,4-triazol-4-yl)-1H-indol-1-yl)ethyl)-N5-(2-(2,6-dioxopiperidin-3-yl)-1-oxoisoindolin-4-yl)-N1-methylglutaramide], the IC50 was greater than 3000 nM in data set [1] (setting [3]); greater than 3000 nM in data set [1] (setting [4]); 287 nM in data set [1] (setting [6]); 839 nM in data set [1] (setting [5]); 735 nM in data set [1] (setting [7]).
On to `CC(C)c1cc(-c2nnc(O)n2-c2ccc3c(ccn3CCN(C)C(=O)c3ccc(CCc4c[nH]c5nc(N)[nH]c(=O)c45)cc3)c2)c(O)cc1O` [SDC-TRAP-0019, 4-(2-(2-amino-4-oxo-4,7-dihydro-3H-pyrrolo[2,3-d]pyrimidin-5-yl)ethyl)-N-(2-(5-(3-(2,4-dihydroxy-5-isopropylphenyl)-5-hydroxy-4H-1,2,4-triazol-4-yl)-1H-indol-1-yl)ethyl)-N-methylbenzamide], for which the IC50 in data set [1] (setting [3]) was greater than 3000 nM; in data set [1] (setting [4]), greater than 3000 nM; in data set [1] (setting [6]), 209 nM; in data set [1] (setting [5]) it was 713 nM; in data set [1] (setting [7]), 258 nM.
On to `CC(C)c1cc(-c2nnc(O)n2-c2ccc3c(ccn3CCOCCNC(=O)c3ccc(CCc4c[nH]c5nc(N)[nH]c(=O)c45)cc3)c2)c(O)cc1O` [SDC-TRAP-0020, 4-(2-(2-amino-4-oxo-4,7-dihydro-3H-pyrrolo[2,3-d]pyrimidin-5-yl)ethyl)-N-(2-(2-(5-(3-(2,4-dihydroxy-5-isopropylphenyl)-5-hydroxy-4H-1,2,4-triazol-4-yl)-1H-indol-1-yl)ethoxy)ethyl)benzamide], for which the IC50 in data set [1] (setting [3]) is greater than 3000 nM; in data set [1] (setting [4]), greater than 3000 nM; in data set [1] (setting [6]) it was 587 nM; in data set [1] (setting [5]), 2620 nM; in data set [1] (setting [7]), 2010 nM.
`CCNC(=O)c1nnc(-c2cc(C(C)C)c(O)cc2O)n1-c1ccc(Oc2ccc(C(=O)N3CCC(OC(=O)OC4(CC)C(=O)OCc5c4cc4n(c5=O)Cc5c-4nc4ccc(O)cc4c5CC)CC3)cc2)cc1` (stereo not drawn) [SDC-TRAP-0203, 4,11-Diethyl-9-hydroxy-3,14-dioxo-3,4,12,14-tetrahydro-1H-pyrano[3′,4′:6,7]indolizino[1,2-b]quinolin-4-yl (1-(4-(4-(3-(2,4-dihydroxy-5-isopropylphenyl)-5-(ethylcarbamoyl)-4H-1,2,4-triazol-4-yl)phenoxy)benzoyl)piperidin-4-yl) carbonate]: in data set [2] (mouse plasma, 37° C.), the “% Remaining” value came out at 71.2%.
The same measure, in the same setting: with `CCNC(=O)c1nnc(-c2cc(C(C)C)c(O)cc2O)n1-c1ccc2c(ccn2CCC2CCN(C(=O)Oc3ccc4nc5c(c(CC)c4c3)Cn3c-5cc4c(c3=O)COC(=O)[C@]4(O)CC)CC2)c1` [SDC-TRAP-0205, (S)-4,11-diethyl-4-hydroxy-3,14-dioxo-3,4,12,14-tetrahydro-1H-pyrano[3′,4′:6,7]indolizino[1,2-b]quinolin-9-yl 4-(2-(5-(3-(2,4-dihydroxy-5-isopropylphenyl)-5-(ethylcarbamoyl)-4H-1,2,4-triazol-4-yl)-1H-indol-1-yl)ethyl)piperidine-1-carboxylate] the figure was 58.4%; with `CCNC(=O)c1nnc(-c2cc(C(C)C)c(O)cc2O)n1-c1ccc(OC2CCN(C(=O)CN(C)C(=O)Oc3ccc4nc5c(c(CC)c4c3)Cn3c-5cc4c(c3=O)COC(=O)[C@]4(O)CC)CC2)cc1` [SDC-TRAP-0206, (S)-4,11-diethyl-4-hydroxy-3,14-dioxo-3,4,12,14-tetrahydro-1H-pyrano[3′,4′:6,7]indolizino[1,2-b]quinolin-9-yl(2-(4-(4-(3-(2,4-dihydroxy-5-isopropylphenyl)-5-(ethylcarbamoyl)-4H-1,2,4-triazol-4-yl)phenoxy)piperidin-1-yl)-2-oxoethyl)(methyl)carbamate], 68.6%.
Take `CCNC(=O)c1nnc(-c2cc(C(C)C)c(O)cc2O)n1-c1ccc2c(ccn2CCC2CCN(C(=O)O[C@]3(CC)C(=O)OCc4c3cc3n(c4=O)Cc4c-3nc3ccc(O)cc3c4CC)CC2)c1` [SDC-TRAP-0208, (S)-4,11-diethyl-9-hydroxy-3,14-dioxo-3,4,12,14-tetrahydro-1H-pyrano[3′,4′:6,7]indolizino[1,2-b]quinolin-4-yl 4-(2-(5-(3-(2,4-dihydroxy-5-isopropylphenyl)-5-(ethylcarbamoyl)-4H-1,2,4-triazol-4-yl)-1H-indol-1-yl)ethyl)piperidine-1-carboxylate]: the “% Remaining” value in data set [2] (mouse plasma, 37° C.) worked out at 86.1%.
Still for that read-out and setting: with `CCNC(=O)c1nnc(-c2cc(C(C)C)c(O)cc2O)n1-c1ccc(OC2CCN(C(=O)[C@@H]3CCCN3C(=O)Oc3ccc4nc5c(c(CC)c4c3)Cn3c-5cc4c(c3=O)COC(=O)[C@]4(O)CC)CC2)cc1` [SDC-TRAP-0209] the figure was 67.1%.
Consider `CCNC(=O)c1nnc(-c2cc(C(C)C)c(O)cc2O)n1-c1ccc(OC2CCN(C(=O)C3CCN(C(=O)Oc4ccc5nc6c(c(CC)c5c4)Cn4c-6cc5c(c4=O)COC(=O)[C@]5(O)CC)C(C)C3)CC2)cc1` (stereo partly drawn) [SDC-TRAP-0213, (S)-4,11-diethyl-4-hydroxy-3,14-dioxo-3,4,12,14-tetrahydro-1H-pyrano[3′,4′:6,7]indolizino[1,2-b]quinolin-9-yl 4-(4-(4-(3-(2,4-dihydroxy-5-isopropylphenyl)-5-(ethylcarbamoyl)-4H-1,2,4-triazol-4-yl)phenoxy)piperidine-1-carbonyl)-2-methylpiperidine-1-carboxylate], for which, in data set [2] (mouse plasma, 37° C.), the “% Remaining” value worked out at 74.7%.
On the same count and under the same terms, with `CCc1c2c(nc3ccc(OC(=O)N4CCCCC4C(=O)N4CCC(CCn5ccc6cc(-n7c(O)nnc7-c7cc(C(C)C)c(O)cc7O)ccc65)CC4)cc13)-c1cc3c(c(=O)n1C2)COC(=O)[C@]3(O)CC` (stereo partly drawn) [SDC-TRAP-0215, (S)-4,11-diethyl-4-hydroxy-3,14-dioxo-3,4,12,14-tetrahydro-1H-pyrano[3′,4′:6,7]indolizino[1,2-b]quinolin-9-yl 2-(4-(2-(5-(3-(2,4-dihydroxy-5-isopropylphenyl)-5-hydroxy-4H-1,2,4-triazol-4-yl)-1H-indol-1-yl)ethyl)piperidine-1-carbonyl)piperidine-1-carboxylate] the figure was 77.2%; with `CCNC(=O)c1nnc(-c2cc(C(C)C)c(O)cc2O)n1-c1ccc(OC2CCN(C(=O)C3CCCCN3C(=O)Oc3ccc4nc5c(c(CC)c4c3)Cn3c-5cc4c(c3=O)COC(=O)[C@]4(O)CC)CC2)cc1` (stereo partly drawn) [SDC-TRAP-0216, (S)-4,11-diethyl-4-hydroxy-3,14-dioxo-3,4,12,14-tetrahydro-1H-pyrano[3′,4′:6,7]indolizino[1,2-b]quinolin-9-yl 2-(4-(4-(3-(2,4-dihydroxy-5-isopropylphenyl)-5-(ethylcarbamoyl)-4H-1,2,4-triazol-4-yl)phenoxy)piperidine-1-carbonyl)piperidine-1-carboxylate], 67.7%.
Still for that read-out and setting: with `CCc1c2c(nc3ccc(OC(=O)N4CCN(Cc5ccc(-n6c(O)nnc6-c6cc(C(C)C)c(O)cc6O)cc5)CC4C)cc13)-c1cc3c(c(=O)n1C2)COC(=O)C3(O)CC` (stereo not drawn) [SDC-TRAP-0220, 4,11-diethyl-4-hydroxy-3,14-dioxo-3,4,12,14-tetrahydro-1H-pyrano[3′,4′:6,7]indolizino[1,2-b]quinolin-9-yl 4-(4-(3-(2,4-dihydroxy-5-isopropylphenyl)-5-hydroxy-4H-1,2,4-triazol-4-yl)benzyl)-2-methylpiperazine-1-carboxylate] the figure was 78.3%.
Turning to `CCNC(=O)c1nnc(-c2cc(C(C)C)c(O)cc2O)n1-c1ccc(CN2CCC(C(=O)N(C)CCCOC(=O)Nc3cccc4c3CN(C3CCC(=O)NC3=O)C4=O)CC2)cc1` (stereo not drawn) [SDC-TRAP-0231, 3-(1-(4-(3-(2,4-dihydroxy-5-isopropylphenyl)-5-(ethylcarbamoyl)-4H-1,2,4-triazol-4-yl)benzyl)-N-methylpiperidine-4-carboxamido)propyl (2-(2,6-dioxopiperidin-3-yl)-1-oxoisoindolin-4-yl)carbamate], the “% Remaining” value in data set [2] (mouse, plasma, 10 μM) is recorded as 98.3%.
